Test system: MV-4-11 cells
Assay: Gene expression microarray analysis (Affymetrix PrimeView) and GSEA
Format: cell-based, human
Design: RFU PODN (11730768_x_at) / Fold change /veh PODN (11730768_x_at) / RFU LINC00158 (11744669_a_at) / Fold change /veh LINC00158 (11744669_a_at) / RFU DUSP10 (11751237_a_at) / Fold change /veh DUSP10 (11751237_a_at) / RFU ID3 (11757404_x_at) / Fold change /veh ID3 (11757404_x_at) / RFU PLEKHG5 (11737974_s_at) / Fold change /veh PLEKHG5 (11737974_s_at) / RFU LRRC4B (11730491_at) / Fold change /veh LRRC4B (11730491_at) / RFU GIMAP4 (11747438_a_at) / Fold change /veh GIMAP4 (11747438_a_at) / RFU KRT8 (11758183_x_at) / Fold change /veh KRT8 (11758183_x_at) / RFU CNN1 (11734310_a_at) / Fold change /veh CNN1 (11734310_a_at) / RFU VPS37D (11726825_at) / Fold change /veh VPS37D (11726825_at) / RFU C10orf10 (11716522_x_at) / Fold change /veh C10orf10 (11716522_x_at) / RFU KIR2DL2 /// KIR2DL4 /// KIR2DL5A /// KIR2DL5B /// KIR2DS1 /// KIR2DS2 /// KIR2DS3 /// KIR2DS4 /// KIR3DL3 /// KIR3DL3 /// KIR3DS1 (11738374_at) / Fold change /veh KIR2DL2 /// KIR2DL4 /// KIR2DL5A /// KIR2DL5B /// KIR2DS1 /// KIR2DS2 /// KIR2DS3 /// KIR2DS4 /// KIR3DL3 /// KIR3DL3 /// KIR3DS1 (11738374_at) / RFU C1QL1 (11718748_at) / Fold change /veh C1QL1 (11718748_at) / RFU TMPRSS4 (11747572_a_at) / Fold change /veh TMPRSS4 (11747572_a_at) / RFU HAMP (11756126_x_at) / Fold change /veh HAMP (11756126_x_at) / RFU RNFT2 (11725882_a_at) / Fold change /veh RNFT2 (11725882_a_at) / RFU NR4A2 (11747474_a_at) / Fold change /veh NR4A2 (11747474_a_at) / RFU ABCC12 (11746883_a_at) / Fold change /veh ABCC12 (11746883_a_at) / RFU TMEM136 (11760407_x_at) / Fold change /veh TMEM136 (11760407_x_at) / RFU CLDN22 /// WWC2 (11732394_at) / Fold change /veh CLDN22 /// WWC2 (11732394_at) / RFU HLA-DPB1 (11760878_x_at) / Fold change /veh HLA-DPB1 (11760878_x_at) / RFU SPINT1 (11716480_a_at) / Fold change /veh SPINT1 (11716480_a_at) / RFU GAP43 (11754022_s_at) / Fold change /veh GAP43 (11754022_s_at) / RFU A4GNT (11735810_at) / Fold change /veh A4GNT (11735810_at) / RFU PRB3 (11715151_x_at) / Fold change /veh PRB3 (11715151_x_at) / RFU TUBB4B (11761932_at) / Fold change /veh TUBB4B (11761932_at) / RFU CAPN14 (11732068_a_at) / Fold change /veh CAPN14 (11732068_a_at) / RFU TMCC2 (11721928_a_at) / Fold change /veh TMCC2 (11721928_a_at) / RFU IRGQ (11745062_a_at) / Fold change /veh IRGQ (11745062_a_at) / RFU FAM174B (11720279_a_at) / Fold change /veh FAM174B (11720279_a_at) / RFU TMPRSS4 (11748680_a_at) / Fold change /veh TMPRSS4 (11748680_a_at) / RFU FAM212B (11763350_a_at) / Fold change /veh FAM212B (11763350_a_at) / RFU PLEKHG5 (11743358_a_at) / Fold change /veh PLEKHG5 (11743358_a_at) / RFU ZSCAN30 (11745921_a_at) / Fold change /veh ZSCAN30 (11745921_a_at) / RFU CMKLR1 (11741424_a_at) / Fold change /veh CMKLR1 (11741424_a_at) / RFU LOC101060620 /// MAPK8IP1 (11723275_at) / Fold change /veh LOC101060620 /// MAPK8IP1 (11723275_at) / RFU SPTSSB (11747773_x_at) / Fold change /veh SPTSSB (11747773_x_at) / RFU PRSS12 (11739890_at) / Fold change /veh PRSS12 (11739890_at) / RFU BIN1 (11741810_x_at) / Fold change /veh BIN1 (11741810_x_at) / RFU WNT11 (11732464_a_at) / Fold change /veh WNT11 (11732464_a_at) / RFU C10orf10 (11716521_a_at) / Fold change /veh C10orf10 (11716521_a_at) / RFU C5orf56 (11738089_at) / Fold change /veh C5orf56 (11738089_at) / RFU CYB561 (11721691_x_at) / Fold change /veh CYB561 (11721691_x_at) / RFU ANKRD19P (11752326_a_at) / Fold change /veh ANKRD19P (11752326_a_at) / RFU OR2T12 /// OR2T33 /// OR2T8 (11738714_s_at) / Fold change /veh OR2T12 /// OR2T33 /// OR2T8 (11738714_s_at) / RFU VCAN (11748164_a_at) / Fold change /veh VCAN (11748164_a_at) / RFU JSRP1 (11732532_at) / Fold change /veh JSRP1 (11732532_at) / RFU KRTAP10-11 (11738290_x_at) / Fold change /veh KRTAP10-11 (11738290_x_at) / RFU MYO3A (11730013_a_at) / Fold change /veh MYO3A (11730013_a_at) / RFU EBF3 (11725865_a_at) / Fold change /veh EBF3 (11725865_a_at) / RFU CAMK2N1 (11719241_x_at) / Fold change /veh CAMK2N1 (11719241_x_at) / RFU C5orf56 (11738088_a_at) / Fold change /veh C5orf56 (11738088_a_at) / RFU OLFML3 (11715873_a_at) / Fold change /veh OLFML3 (11715873_a_at) / RFU LOC100653217 /// NTM (11731650_a_at) / Fold change /veh LOC100653217 /// NTM (11731650_a_at) / RFU MAPK11 (11762145_a_at) / Fold change /veh MAPK11 (11762145_a_at) / RFU FIZ1 (11724087_x_at) / Fold change /veh FIZ1 (11724087_x_at) / RFU OASL (11726364_x_at) / Fold change /veh OASL (11726364_x_at) / RFU SOX15 (11748057_x_at) / Fold change /veh SOX15 (11748057_x_at) / RFU CD79A (11719716_a_at) / Fold change /veh CD79A (11719716_a_at) / RFU HIST1H1D (11736915_at) / Fold change /veh HIST1H1D (11736915_at) / RFU CASKIN2 (11723855_a_at) / Fold change /veh CASKIN2 (11723855_a_at) / RFU LOC730098 (11760151_x_at) / Fold change /veh LOC730098 (11760151_x_at) / RFU OR4N2 (11742367_at) / Fold change /veh OR4N2 (11742367_at) / RFU PRRT2 (11749266_a_at) / Fold change /veh PRRT2 (11749266_a_at) / RFU SNX32 (11753110_a_at) / Fold change /veh SNX32 (11753110_a_at) / RFU CDHR5 (11726645_a_at) / Fold change /veh CDHR5 (11726645_a_at) / RFU RCAN1 (11760418_a_at) / Fold change /veh RCAN1 (11760418_a_at) / RFU FAM167A (11723789_a_at) / Fold change /veh FAM167A (11723789_a_at) / RFU FAM26E (11764081_at) / Fold change /veh FAM26E (11764081_at) / RFU ISYNA1 (11749810_s_at) / Fold change /veh ISYNA1 (11749810_s_at) / RFU ACY1 (11761880_at) / Fold change /veh ACY1 (11761880_at) / RFU 11764098_at / Fold change /veh 11764098_at / RFU SAMD14 (11745864_x_at) / Fold change /veh SAMD14 (11745864_x_at) / RFU NPB (11741838_a_at) / Fold change /veh NPB (11741838_a_at) / RFU TMPRSS6 (11731388_a_at) / Fold change /veh TMPRSS6 (11731388_a_at) / RFU KRTAP10-2 (11738614_at) / Fold change /veh KRTAP10-2 (11738614_at) / RFU ARHGAP8 /// PRR5-ARHGAP8 (11727945_x_at) / Fold change /veh ARHGAP8 /// PRR5-ARHGAP8 (11727945_x_at) / RFU KRTAP5-7 /// NADSYN1 (11734609_at) / Fold change /veh KRTAP5-7 /// NADSYN1 (11734609_at) / RFU RASL12 (11751679_a_at) / Fold change /veh RASL12 (11751679_a_at) / RFU CDKN2B (11736163_a_at) / Fold change /veh CDKN2B (11736163_a_at) / RFU PRF1 (11729649_at) / Fold change /veh PRF1 (11729649_at) / RFU, ZNF638 /// ZNF638-IT1 / Fold change vs veh, ZNF638 /// ZNF638-IT1 / RFU, PANK3 / Fold change vs veh, PANK3 / RFU, SH3YL1 / Fold change vs veh, SH3YL1 / RFU, ZEB2 / Fold change vs veh, ZEB2 / RFU, NRIP1 / Fold change vs veh, NRIP1 / RFU, PTTG1IP / Fold change vs veh, PTTG1IP / RFU, CAPN2 / Fold change vs veh, CAPN2 / RFU, MED14 / Fold change vs veh, MED14 / RFU, SNORA58 / Fold change vs veh, SNORA58 / RFU, C1orf63 / Fold change vs veh, C1orf63 / RFU, LRRFIP1 / Fold change vs veh, LRRFIP1 / RFU, NDUFAF7 / Fold change vs veh, NDUFAF7 / RFU, SLC12A2 / Fold change vs veh, SLC12A2 / RFU, IBTK / Fold change vs veh, IBTK / RFU, ESF1 / Fold change vs veh, ESF1 / Fold change vs veh, TMEM50B / RFU, TAOK1 / Fold change vs veh, TAOK1 / RFU, ACBD3 / Fold change vs veh, ACBD3 / RFU, TMA16 / Fold change vs veh, TMA16 / RFU, RWDD3 / Fold change vs veh, RWDD3 / RFU, BCAT1 / Fold change vs veh, BCAT1 / RFU, EDEM3 / Fold change vs veh, EDEM3 / RFU, TMEM33 / Fold change vs veh, TMEM33 / RFU, WDR75 / Fold change vs veh, WDR75 / RFU, AHCTF1 / Fold change vs veh, AHCTF1 / RFU, TFRC / Fold change vs veh, TFRC / RFU, ZDHHC17 / Fold change vs veh, ZDHHC17 / RFU, NOM1 / Fold change vs veh, NOM1 / RFU, ARL8B / Fold change vs veh, ARL8B / RFU, ZBTB11 / Fold change vs veh, ZBTB11 / RFU, TAMM41 / Fold change vs veh, TAMM41 / RFU, KIAA1704 /// LOC100996395 / Fold change vs veh, KIAA1704 /// LOC100996395 / RFU, ING1 / Fold change vs veh, ING1 / RFU, TRMT61B / Fold change vs veh, TRMT61B / RFU, FUBP3 / Fold change vs veh, FUBP3 / RFU, TP53 / Fold change vs veh, TP53 / RFU, TNKS2 / Fold change vs veh, TNKS2 / RFU, ZFP14 / Fold change vs veh, ZFP14 / RFU, ACTR2 / Fold change vs veh, ACTR2 / RFU, PPP3R1 / Fold change vs veh, PPP3R1 / RFU, PIK3R1 / Fold change vs veh, PIK3R1 / RFU, HNRNPA1 / Fold change vs veh, HNRNPA1 / RFU, RNF170 / Fold change vs veh, RNF170 / RFU, ZNF28 / Fold change vs veh, ZNF28 / RFU, RNGTT / Fold change vs veh, RNGTT / RFU, OGT / Fold change vs veh, OGT / RFU, BRD1 / Fold change vs veh, BRD1 / RFU, MARS / Fold change vs veh, MARS / RFU, ZNF655 / Fold change vs veh, ZNF655 / RFU, FAHD1 / Fold change vs veh, FAHD1 / RFU, BDP1 / Fold change vs veh, BDP1 / RFU, LRRCC1 / Fold change vs veh, LRRCC1 / RFU, ARID1A / Fold change vs veh, ARID1A / RFU, ZNF146 / Fold change vs veh, ZNF146 / RFU, ZNF330 / Fold change vs veh, ZNF330 / RFU, GPN3 / Fold change vs veh, GPN3 / RFU, C9orf123 / Fold change vs veh, C9orf123 / RFU, N4BP2L2 / Fold change vs veh, N4BP2L2 / RFU, ARFIP1 / Fold change vs veh, ARFIP1 / RFU, FAM179B / Fold change vs veh, FAM179B / RFU, BCL10 / Fold change vs veh, BCL10 / RFU, UHRF1BP1L / Fold change vs veh, UHRF1BP1L / RFU, BET1 / Fold change vs veh, BET1 / RFU, CNOT2 / Fold change vs veh, CNOT2 / RFU, ZNF268 / Fold change vs veh, ZNF268 / Fold change vs veh, ZNF507 / RFU, DGCR2 / Fold change vs veh, DGCR2 / RFU, WDSUB1 / Fold change vs veh, WDSUB1 / Fold change vs veh, HSP90B1 /// MIR3652 / RFU, ADSS / Fold change vs veh, ADSS / RFU, GK / Fold change vs veh, GK / RFU, ZNF148 / Fold change vs veh, ZNF148 / RFU, TAF9 / Fold change vs veh, TAF9 / RFU, SLC1A5 / Fold change vs veh, SLC1A5 / RFU, SLMO2 / Fold change vs veh, SLMO2 / RFU, ABCC4 / Fold change vs veh, ABCC4 / RFU, LOC101060439 /// RAP1B / Fold change vs veh, LOC101060439 /// RAP1B / RFU, RFX7 / Fold change vs veh, RFX7 / RFU, GTPBP10 / Fold change vs veh, GTPBP10 / RFU, CNEP1R1 / Fold change vs veh, CNEP1R1 / RFU, BIVM-ERCC5 /// ERCC5 / Fold change vs veh, BIVM-ERCC5 /// ERCC5 / RFU, ILF3 / Fold change vs veh, ILF3 / RFU 11762660_at / Fold change /veh 11762660_at / RFU VCAN (11757783_s_at) / Fold change /veh VCAN (11757783_s_at) / RFU DDX43 (11728927_at) / Fold change /veh DDX43 (11728927_at) / RFU KRT8 (11758188_x_at) / Fold change /veh KRT8 (11758188_x_at) / RFU NKD1 (11759106_at) / Fold change /veh NKD1 (11759106_at) / RFU SRD5A1 (11742802_a_at) / Fold change /veh SRD5A1 (11742802_a_at) / RFU TPSAB1 /// TPSB2 (11721975_s_at) / Fold change /veh TPSAB1 /// TPSB2 (11721975_s_at) / RFU GSTM3 (11746129_a_at) / Fold change /veh GSTM3 (11746129_a_at) / RFU IL23R (11737362_x_at) / Fold change /veh IL23R (11737362_x_at) / RFU TMEM51 (11727254_a_at) / Fold change /veh TMEM51 (11727254_a_at) / RFU PIWIL2 (11732686_x_at) / Fold change /veh PIWIL2 (11732686_x_at) / RFU ORM1 (11744905_x_at) / Fold change /veh ORM1 (11744905_x_at) / RFU CCDC152 (11743942_at) / Fold change /veh CCDC152 (11743942_at) / RFU ECM1 (11717891_a_at) / Fold change /veh ECM1 (11717891_a_at) / RFU IL23R (11748794_a_at) / Fold change /veh IL23R (11748794_a_at) / RFU TNFAIP8L3 (11732012_x_at) / Fold change /veh TNFAIP8L3 (11732012_x_at) / RFU MBOAT4 (11741988_at) / Fold change /veh MBOAT4 (11741988_at) / RFU 11764193_at / Fold change /veh 11764193_at / RFU TMEM53 (11763286_at) / Fold change /veh TMEM53 (11763286_at) / RFU MAGEB2 (11727129_at) / Fold change /veh MAGEB2 (11727129_at) / RFU TMEM200A (11744735_a_at) / Fold change /veh TMEM200A (11744735_a_at) / RFU CCDC152 (11751479_a_at) / Fold change /veh CCDC152 (11751479_a_at) / RFU FAM211A (11726209_a_at) / Fold change /veh FAM211A (11726209_a_at) / RFU RGS16 (11746705_a_at) / Fold change /veh RGS16 (11746705_a_at) / RFU VCAN (11755009_s_at) / Fold change /veh VCAN (11755009_s_at) / RFU RHOB (11743442_s_at) / Fold change /veh RHOB (11743442_s_at) / RFU RGS16 (11720943_a_at) / Fold change /veh RGS16 (11720943_a_at) / RFU RGS16 (11720944_at) / Fold change /veh RGS16 (11720944_at) / RFU, VPS4B / Fold change vs veh, VPS4B / RFU, CREB1 / Fold change vs veh, CREB1 / RFU, DNAJC13 / Fold change vs veh, DNAJC13 / RFU, GNAQ / Fold change vs veh, GNAQ / RFU, CDK5R1 / Fold change vs veh, CDK5R1 / RFU, ZRANB3 / Fold change vs veh, ZRANB3 / RFU, CUL4A / Fold change vs veh, CUL4A / RFU, CCNY / Fold change vs veh, CCNY / RFU, UFL1 / Fold change vs veh, UFL1 / RFU, COG3 / Fold change vs veh, COG3 / RFU, DIAPH2 / Fold change vs veh, DIAPH2 / RFU, SKA2 / Fold change vs veh, SKA2 / RFU, AFF3 / Fold change vs veh, AFF3 / RFU, LMF1 / Fold change vs veh, LMF1 / RFU, IPO11 / Fold change vs veh, IPO11 / RFU, DFFB / Fold change vs veh, DFFB / RFU, FOXP1 / Fold change vs veh, FOXP1 / RFU, CARD8 / Fold change vs veh, CARD8 / RFU, STRN3 / Fold change vs veh, STRN3 / RFU, ADK / Fold change vs veh, ADK / RFU, RASSF2 / Fold change vs veh, RASSF2 / RFU, WIPF1 / Fold change vs veh, WIPF1 / RFU, LARP1B / Fold change vs veh, LARP1B / RFU, RASA1 / Fold change vs veh, RASA1 / RFU, RB1 / Fold change vs veh, RB1 / RFU, PPFIA1 / Fold change vs veh, PPFIA1 / RFU, MAT2A / Fold change vs veh, MAT2A / RFU, CCT5 / Fold change vs veh, CCT5 / RFU, WDR92 / Fold change vs veh, WDR92 / RFU, CUX1 / Fold change vs veh, CUX1 / RFU, TTC7A / Fold change vs veh, TTC7A / RFU, TMEM135 / Fold change vs veh, TMEM135 / RFU, DEPTOR / Fold change vs veh, DEPTOR / RFU, CPM / Fold change vs veh, CPM / RFU, DNAJB6 / Fold change vs veh, DNAJB6 / RFU, CACNA2D3 / Fold change vs veh, CACNA2D3 / RFU, DTX4 / Fold change vs veh, DTX4 / RFU, TFCP2 / Fold change vs veh, TFCP2 / RFU, GMCL1 /// GMCL1P1 / Fold change vs veh, GMCL1 /// GMCL1P1 / RFU, AEBP2 / Fold change vs veh, AEBP2 / RFU, SNHG1 /// SNORD22 /// SNORD25 /// SNORD26 /// SNORD27 /// SNORD28 /// SNORD29 /// SNORD31 / Fold change vs veh, SNHG1 /// SNORD22 /// SNORD25 /// SNORD26 /// SNORD27 /// SNORD28 /// SNORD29 /// SNORD31 / Fold change (Aza/veh), C12orf56 (ProbeSet 11735607_a_at) / Fold change (ACY-1035/veh), C12orf56 (ProbeSet 11735607_a_at) / Fold change (Aza/veh), FGFR1OP (ProbeSet 11751329_s_at) / Fold change (ACY-1035/veh), FGFR1OP (ProbeSet 11751329_s_at) / Fold change (Aza/veh), VPS36 (ProbeSet 11739960_a_at) / Fold change (ACY-1035/veh), VPS36 (ProbeSet 11739960_a_at) / RFU SYPL1 (11715823_x_at) / Fold change /veh SYPL1 (11715823_x_at) / RFU IGFBP7 (11715501_s_at) / Fold change /veh IGFBP7 (11715501_s_at) / RFU REEP3 (11722064_at) / Fold change /veh REEP3 (11722064_at) / RFU IGLL1 (11728026_x_at) / Fold change /veh IGLL1 (11728026_x_at): dose or concentration left out as unconfirmed
Settings: ProbeSet 11757268_x_at; LIST B

Nc1ncn([C@@H]2O[C@H](CO)[C@@H](O)[C@H]2O)c(=O)n1 [azacitidine]
RFU, HNRNPA1: 4469.53 RFU
